Assay results reported in PubChem BioAssay AID1963441 (Molecular Pharmacology Branch, DTP, NCI, 2024).

Tested on: NCI-H1876 complex spheroid growth, % test/control
Assay: Anticancer human tumor NCI-H1876 cell line growth inhibition [Asc];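 also: compound exposure lasted 7 days starting three days after seeding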;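 as to viability, T/C: 100% = DMSO vehicle control wells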
Settings: for viability, T/C: stronger effect = lower value
Outline: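 Concentration series start at each agent's clinical Cmax, or at 10 microM when none is established, and drop in half-log steps; agents are applied alone or together to complex spheroids built with HUVEC and hMSC.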

[1] = curve of first compound, second compound 0.0316 µM
[2] = curve of first compound, second compound 0.1 µM
[3] = curve of first compound, second compound 0.316 µM
[4] = curve of first compound, second compound 1 µM
[5] = second compound 0.0316 µM, first compound 0.00316 µM
[6] = second compound 0.0316 µM, first compound 0.01 µM
[7] = second compound 0.0316 µM, first compound 0.0316 µM
[8] = second compound 0.0316 µM, first compound 0.1 µM
[9] = second compound 0.0316 µM, first compound 0.316 µM
[10] = second compound 0.0316 µM, first compound 1 µM
[11] = second compound 0.1 µM, first compound 0.00316 µM
[12] = second compound 0.1 µM, first compound 0.01 µM
[13] = second compound 0.1 µM, first compound 0.0316 µM
[14] = second compound 0.1 µM, first compound 0.1 µM
[15] = second compound 0.1 µM, first compound 0.316 µM
[16] = second compound 0.1 µM, first compound 1 µM
[17] = second compound 0.316 µM, first compound 0.00316 µM
[18] = second compound 0.316 µM, first compound 0.01 µM
[19] = second compound 0.316 µM, first compound 0.0316 µM
[20] = second compound 0.316 µM, first compound 0.1 µM
[21] = second compound 0.316 µM, first compound 0.316 µM
[22] = second compound 0.316 µM, first compound 1 µM
[23] = second compound 1 µM, first compound 0.00316 µM
[24] = second compound 1 µM, first compound 0.01 µM
[25] = second compound 1 µM, first compound 0.0316 µM
[26] = second compound 1 µM, first compound 0.1 µM
[27] = second compound 1 µM, first compound 0.316 µM
[28] = second compound 1 µM, first compound 1 µM

Work on COc1c(OCCCN2CCOCC2)ccc2c3n(c(=NC(=O)c4cnc(N)nc4)nc12)CCN3 + CNC(C)C(=O)NC1CN(S(=O)(=O)c2cccc(S(=O)(=O)N3CCC4CCC(C(=O)NC(c5ccccc5)c5ccccc5)N4C(=O)C(NC(=O)C(C)NC)C3)c2)CCC2CCC(C(=O)NC(c3ccccc3)c3ccccc3)N2C1=O yielded an IC50 (curve of first compound, second compound 0.00316 µM) of over 1000 nM, an IC50 (curve of first compound, second compound 0.01 µM) of 734 nM and an IC50 [1] of 789 nM. The IC50 [2] was 701 nM, the IC50 [3] was over 1000 nM and the IC50 [4] was 901 nM. It also gave a viability, T/C (second compound 0.00316 µM, first compound 0.00316 µM) of 106%, a viability, T/C (second compound 0.00316 µM, first compound 0.01 µM) of 107% and a viability, T/C (second compound 0.00316 µM, first compound 0.0316 µM) of 103%. For the same compound, the viability, T/C (second compound 0.00316 µM, first compound 0.1 µM) was 81.5%, the viability, T/C (second compound 0.00316 µM, first compound 0.316 µM) was 64.5% and the viability, T/C (second compound 0.00316 µM, first compound 1 µM) was 49.2%. The viability, T/C (second compound 0.01 µM, first compound 0.00316 µM) was 105%, the viability, T/C (second compound 0.01 µM, first compound 0.01 µM) was 106% and the viability, T/C (second compound 0.01 µM, first compound 0.0316 µM) was 107%. For the same compound, the viability, T/C (second compound 0.01 µM, first compound 0.1 µM) was 82.1%, the viability, T/C (second compound 0.01 µM, first compound 0.316 µM) was 63.3% and the viability, T/C (second compound 0.01 µM, first compound 1 µM) was 45%. It also gave a viability, T/C [5] of 100%, a viability, T/C [6] of 103% and a viability, T/C [7] of 99.4%. It also gave a viability, T/C [8] of 84.1%, a viability, T/C [9] of 62.5% and a viability, T/C [10] of 46.7%. The viability, T/C [11] was 102%, the viability, T/C [12] was 101% and the viability, T/C [13] was 98.6%. It also gave a viability, T/C [14] of 82.3%, a viability, T/C [15] of 63.8% and a viability, T/C [16] of 44%. The viability, T/C [17] was 107%, the viability, T/C [18] was 117% and the viability, T/C [19] was 93.6%. It also gave a viability, T/C [20] of 86.2%, a viability, T/C [21] of 70% and a viability, T/C [22] of 56.4%. It also gave a viability, T/C [23] of 105%, a viability, T/C [24] of 109% and a viability, T/C [25] of 96.6%. For the same compound, the viability, T/C [26] was 86.2%, the viability, T/C [27] was 67.5% and the viability, T/C [28] was 48.2%.

With CCN1C(C(=O)NC23CCC(C(=O)O)(CC2)CC3)C(c2cccc(Cl)c2F)C2(C(=O)Nc3cc(Cl)ccc32)C12CCCCC2 (centres undefined) the viability, T/C (compound 0.00949 µM) was 109% [middle of 9 runs], the viability, T/C (compound 0.0949 µM) was 103% [middle of 9 runs] and the viability, T/C (compound 3 µM) was 107% [middle of 9 runs]. The IC50 (compound alone, run of 11/07/2022) was over 3000 nM and the IC50 (curve of compound) was over 3000 nM.

CCN1CCN(Cc2ccc(Nc3ncc(F)c(-c4cc(F)c5nc(C)n(C(C)C)c5c4)n3)nc2)CC1 + Cc1c(S(C)(=O)=O)c(-c2cc(F)cc(N3CCN(c4ccc(NS(=O)(=O)c5ccc(NC(CCN6CCC(C(=O)OCCCP(=O)(O)O)CC6)CSc6ccccc6)c(S(=O)(=O)C(F)(F)F)c5)cc4)CC3)c2)c(-c2ccc(Cl)cc2)n1C(C)C showed an IC50 [1] of over 1000 nM, an IC50 [2] of over 1000 nM and an IC50 [3] of over 1000 nM. For the same compound, the IC50 [4] was over 1000 nM, the IC50 (curve of first compound, second compound 3.16 µM) was over 1000 nM and the IC50 (curve of first compound, second compound 10 µM) was over 1000 nM. It also gave a viability, T/C [5] of 97.1%, a viability, T/C [6] of 94% and a viability, T/C [7] of 97.9%. It also gave a viability, T/C [8] of 98.7%, a viability, T/C [9] of 117% and a viability, T/C [10] of 130%. It also gave a viability, T/C [11] of 98.7%, a viability, T/C [12] of 101% and a viability, T/C [13] of 100%. It also gave a viability, T/C [14] of 112%, a viability, T/C [15] of 121% and a viability, T/C [16] of 127%. The viability, T/C [17] was 106%, the viability, T/C [18] was 96.2% and the viability, T/C [19] was 120%. It also gave a viability, T/C [20] of 106%, a viability, T/C [21] of 115% and a viability, T/C [22] of 125%. It also gave a viability, T/C [23] of 101%, a viability, T/C [24] of 100% and a viability, T/C [25] of 98.1%. For the same compound, the viability, T/C [26] was 109%, the viability, T/C [27] was 121% and the viability, T/C [28] was 116%. It also gave a viability, T/C (second compound 3.16 µM, first compound 0.00316 µM) of 111%, a viability, T/C (second compound 3.16 µM, first compound 0.01 µM) of 104% and a viability, T/C (second compound 3.16 µM, first compound 0.0316 µM) of 91.8%. It also gave a viability, T/C (second compound 3.16 µM, first compound 0.1 µM) of 103%, a viability, T/C (second compound 3.16 µM, first compound 0.316 µM) of 114% and a viability, T/C (second compound 3.16 µM, first compound 1 µM) of 110%. The viability, T/C (second compound 10 µM, first compound 0.00316 µM) was 105%, the viability, T/C (second compound 10 µM, first compound 0.01 µM) was 104% and the viability, T/C (second compound 10 µM, first compound 0.0316 µM) was 94.7%. It also gave a viability, T/C (second compound 10 µM, first compound 0.1 µM) of 111%, a viability, T/C (second compound 10 µM, first compound 0.316 µM) of 122% and a viability, T/C (second compound 10 µM, first compound 1 µM) of 102%.
